# Results taken from patent US4443536A, “Nondiffusible photographic couplers and photographic elements and processes employing same” (Eastman Kodak Company, priority 1982, dated 1984).
# Values joined by “and” are separate entries in the source; they are usually repeats but may differ in a detail not shown here. Identical values can stand only once.
# Test: Dye hue from spectrophotometric curves: λ-max, half band width, curve shape factor
# Conditions: for CSF (curve shape factor, 100 X TBW/HBW) / HBW (half band width) / λ-max (maximum absorption peak of dye): Table I; for CSF / HBW / λ-max: Table II
# Procedure: Photographic elements containing couplers of this invention and control couplers were prepared and tested according to the procedures described below.
# The photosensitive layer was overcoated with a layer containing gelatin at 1.08 g/m^2 and bis-vinyl-sulfonylmethyl ether at 1.75 weight percent based on total gelatin.
# Samples of each element were imagewise exposed through a graduated-density test object and processed at 40° C. employing one of three color developing solutions identified below then stopped, bleached, fixed and washed.
# In each element, well-defined, dye images were produced which were evaluated by plotting dye density vs. log exposure sensitometric curves and recording the maximum dye density (Dmax) and gamma (γ) i.e., the contrast determined by the slope of the straight line portion of the curve. Additionally, dye hues were evaluated from spectrophotometric curves by measuring the maximum absorption peak (λmax) normalized to a density of 1.0 and the half band width (HBW). Halfband width is the width, in nanometers, of the spectrophotometric curve at one-half the difference between maximum density and stain. Similarly, the top-band width (TBW) and bottom-band width (BBW) of the curve were measured at three-fourths and one-fourth, respectively, of the normalized density. Curve shape factor (CSF) equals 100 X TBW/HBW and provides a ratio of the width near the top and bottom of the absorption curve. The greater this ratio, the steeper are the sides of the absorption peak, and the more efficient is the dye's absorption of light in its spectral region.
# Photographic elements containing additional couplers of this invention were prepared, processed and evaluated as described above in connection with Examples 1-14.
# [1] = coupler solvent CS-1, developer D-1
# [2] = coupler solvent CS-2, developer D-2
# [3] = coupler solvent CS-2, developer D-3
# [4] = coupler solvent CS-3, developer D-2
# [5] = coupler solvent CS-3, developer D-1
# [6] = coupler solvent CS-3, developer D-3
# [7] = coupler solvent CS-4, developer D-3
structure (smiles),measurement,setting,value
"CCCCCCCCCCCCCCCc1cccc(OC(CC)C(=O)NC2=NN(c3c(C)cc(C)cc3Cl)C(=O)C2)c1 (stereo not drawn) [CC-1, reference compound]","CSF (curve shape factor, 100 X TBW/HBW)",[1],43.3 and 43.6 and 43.1
same,HBW (half band width),[1],94 nanometers
same,λ-max (maximum absorption peak of dye),[1],531
"CCCCCCCCCCCCC(Oc1ccc(O)c(C(C)(C)C)c1)C(=O)Nc1ccc(Cl)c(NC2=NN(c3c(Cl)cc(Cl)cc3Cl)C(=O)C2)c1 (stereo not drawn) [CC-2, reference compound]","CSF (curve shape factor, 100 X TBW/HBW)",[2],46.3 and 39.5 and 39.9
same,HBW (half band width),[2],81 nanometers and 79 nanometers and 78 nanometers
same,λ-max (maximum absorption peak of dye),[2],539 and 540
same,"CSF (curve shape factor, 100 X TBW/HBW)",[3],40.4
same,HBW (half band width),[3],79 nanometers
same,λ-max (maximum absorption peak of dye),[3],545
"CCC(C)(C)c1ccc(OCC(=O)Nc2cccc(C(=O)NC3=NN(c4c(Cl)cc(Cl)cc4Cl)C(=O)C3)c2)c(C(C)(C)CC)c1 [CC-3, reference compound]","CSF (curve shape factor, 100 X TBW/HBW)",[3],45.3
same,HBW (half band width),[3],88 nanometers
same,λ-max (maximum absorption peak of dye),[3],556
"CCc1c(Cl)cc(NC(=O)C(CC)Oc2ccc(C(C)(C)CC)cc2C(C)(C)CC)c(O)c1Cl (stereo not drawn) [CC-4, reference compound]","CSF (curve shape factor, 100 X TBW/HBW)",[4],45.2
same,HBW (half band width),[4],141 nanometers
same,λ-max (maximum absorption peak of dye),[4],659
"CCCCCCCCCCCCCCCCS(=O)(=O)Nc1ccc(Cl)c(NC(=O)C(Oc2ccc(S(=O)(=O)c3ccc(OCc4ccccc4)cc3)cc2)C(=O)C(C)(C)C)c1 (stereo not drawn) [CC-5, reference compound]","CSF (curve shape factor, 100 X TBW/HBW)",[4],43.5
same,HBW (half band width),[4],88 nanometers
same,λ-max (maximum absorption peak of dye),[4],446
"CCC(C)(C)c1ccc(OCCCC(=O)Nc2ccc(Cl)c(NC(=O)C(Oc3ccc(S(=O)(=O)c4ccc(OCc5ccccc5)cc4)cc3)C(=O)C(C)(C)C)c2)c(C(C)(C)CC)c1 (stereo not drawn) [CC-6, reference compound]","CSF (curve shape factor, 100 X TBW/HBW)",[4],42.0
same,HBW (half band width),[4],85 nanometers
same,λ-max (maximum absorption peak of dye),[4],441
"CCCCC(Oc1ccc(S(=O)(=O)c2ccc(OCc3ccccc3)cc2)cc1)C(=O)Nc1ccc(Cl)c(NC(=O)C(Oc2ccc(S(=O)(=O)c3ccc(O)cc3)cc2)C(=O)C(C)(C)C)c1 (stereo not drawn) [CC-7, reference compound]","CSF (curve shape factor, 100 X TBW/HBW)",[4],45.2
same,HBW (half band width),[4],85 nanometers
same,λ-max (maximum absorption peak of dye),[4],445
"CCCCC(Oc1ccc(S(=O)(=O)c2ccc(OCc3ccccc3)cc2)cc1)C(=O)Nc1cccc(NC(=O)C(Oc2ccc(S(=O)(=O)c3ccc(O)cc3)cc2)C(=O)C(C)(C)C)c1 (stereo not drawn) [CC-8, reference compound]","CSF (curve shape factor, 100 X TBW/HBW)",[4],44.3
same,HBW (half band width),[4],90 nanometers
same,λ-max (maximum absorption peak of dye),[4],439
"CCCCCCCCCCC(Oc1ccc(S(=O)(=O)c2ccc(OCc3ccccc3)cc2)cc1)C(=O)Nc1ccc(Cl)c(NC(=O)C(Oc2ccc(S(=O)(=O)c3ccc(O)cc3)cc2)C(=O)C(C)(C)C)c1 (stereo not drawn) [CC-9, reference compound]","CSF (curve shape factor, 100 X TBW/HBW)",[5],43.8
same,HBW (half band width),[5],87 nanometers
same,λ-max (maximum absorption peak of dye),[5],450
CCCCCCCCCCCCC(Oc1ccc(S(=O)(=O)c2ccc(O)cc2)cc1)C(=O)Nc1ccc(NC(=O)CCC)c(O)c1 (stereo not drawn) [Coupler C-2],CSF,[5],45.7%
same,HBW,[5],144 nm
same,λ-max,[5],655 nm
CCCCCCCCCCCCC(Oc1ccc(S(=O)(=O)c2ccc(O)cc2)cc1)C(=O)Nc1ccc(NC(=O)C(F)(F)F)c(O)c1 (stereo not drawn) [Coupler C-3],CSF,[4],47.8%
same,HBW,[4],161 nm
same,λ-max,[4],659 nm
CCCCCCCCCCC(Oc1ccc(S(=O)(=O)c2ccc(O)cc2)cc1)C(=O)Nc1cc(O)c(NC(=O)Nc2cccc(S(=O)(=O)NCCCC)c2)cc1OC (stereo not drawn) [Coupler C-13],CSF,[6],44.4%
same,HBW,[6],135 nm
same,λ-max,[6],702 nm
CCCCCCCCCCC(Oc1ccc(S(=O)(=O)c2ccc(O)cc2)cc1)C(=O)Nc1cc(Cl)c(CC)c(Cl)c1O (stereo not drawn) [Coupler C-31],"CSF (curve shape factor, 100 X TBW/HBW)",[4],47.0
same,HBW (half band width),[4],160 nanometers
same,λ-max (maximum absorption peak of dye),[4],675
CCCCCCCCCCCCC(Oc1ccc(S(=O)(=O)c2ccc(O)cc2)cc1)C(=O)NC1=NN(c2c(Cl)cc(Cl)cc2Cl)C(=O)C1 (stereo not drawn) [Coupler M-3],"CSF (curve shape factor, 100 X TBW/HBW)",[1],46.0
same,HBW (half band width),[1],96 nanometers
same,λ-max (maximum absorption peak of dye),[1],546
same,CSF,[1],45.7%
same,HBW,[1],96 nm
same,λ-max,[1],546 nm
CCCCCCCCCCC(Oc1ccc(S(=O)(=O)c2ccc(O)cc2)cc1)C(=O)Nc1ccc(CCCc2n[nH]c3cc(C)nn23)cc1 (stereo not drawn) [Coupler M-8],"CSF (curve shape factor, 100 X TBW/HBW)",[3],50.5
same,HBW (half band width),[3],86 nanometers
same,λ-max (maximum absorption peak of dye),[3],550
CCCCCCCCCCC(Oc1ccc(S(=O)(=O)c2ccc(O)cc2)cc1)C(=O)Nc1ccc(CCCc2n[nH]c3c(Cl)c(C)nn23)cc1 (stereo not drawn) [Coupler M-9],CSF,[7],44.2%
same,HBW,[7],90 nm
same,λ-max,[7],558 nm
CCCCCCCCCCCCC(Oc1ccc(S(=O)(=O)c2ccc(O)cc2)cc1)C(=O)Nc1ccc(Cl)c(NC2=NN(c3c(Cl)cc(Cl)cc3Cl)C(=O)C2)c1 (stereo not drawn) [Coupler M-27],"CSF (curve shape factor, 100 X TBW/HBW)",[1],47.0
same,HBW (half band width),[1],91 nanometers
same,λ-max (maximum absorption peak of dye),[1],545
CCCCCCCCCCC(Oc1ccc(S(=O)(=O)c2ccc(O)cc2)cc1)C(=O)Nc1ccc(Cl)c(NC2=NN(c3c(Cl)cc(Cl)cc3Cl)C(=O)C2)c1 (stereo not drawn) [Coupler M-28],"CSF (curve shape factor, 100 X TBW/HBW)",[1],46.7
same,HBW (half band width),[1],92 nanometers
same,λ-max (maximum absorption peak of dye),[1],549
same,"CSF (curve shape factor, 100 X TBW/HBW)",[2],46.5
same,HBW (half band width),[2],93 nanometers
same,λ-max (maximum absorption peak of dye),[2],541
same,"CSF (curve shape factor, 100 X TBW/HBW)",[3],46.4
same,HBW (half band width),[3],94 nanometers
same,λ-max (maximum absorption peak of dye),[3],549
same,CSF,[3],42.6%
same,HBW,[3],94 nm
same,λ-max,[3],549 nm
CCCCCCCCCCC(Oc1ccc(S(=O)(=O)c2ccc(O)cc2)cc1)C(=O)Nc1ccc(Cl)c(NC2=NN(c3c(Cl)cc(Cl)cc3Cl)C(=O)C2SCCCCCCC)c1 (stereo not drawn) [Coupler M-29],"CSF (curve shape factor, 100 X TBW/HBW)",[2],46.7
same,HBW (half band width),[2],88 nanometers
same,λ-max (maximum absorption peak of dye),[2],540
same,"CSF (curve shape factor, 100 X TBW/HBW)",[3],40.9
same,HBW (half band width),[3],90 nanometers
same,λ-max (maximum absorption peak of dye),[3],545
CCCCCCCCCCC(CN(C)S(=O)(=O)c1ccc(NC2=NN(c3c(Cl)cc(S(=O)(=O)N(C)C)cc3Cl)C(=O)C2)c(Cl)c1)Oc1ccc(S(=O)(=O)c2ccc(O)cc2)cc1 (stereo not drawn) [Coupler M-32],"CSF (curve shape factor, 100 X TBW/HBW)",[2],40.9
same,HBW (half band width),[2],82 nanometers
same,λ-max (maximum absorption peak of dye),[2],549
CC(C)(C)C(=O)C(Oc1ccc(S(=O)(=O)c2ccc(OCc3ccccc3)cc2)cc1)C(=O)Nc1cc(NS(=O)(=O)c2ccc(O)cc2)ccc1Cl (stereo not drawn) [Coupler Y-1],"CSF (curve shape factor, 100 X TBW/HBW)",[4],43.7
same,HBW (half band width),[4],88 nanometers
same,λ-max (maximum absorption peak of dye),[4],449
CCCCC(Oc1ccc(S(=O)(=O)c2ccc(O)cc2)cc1)C(=O)Nc1ccc(Cl)c(NC(=O)C(Oc2ccc(S(=O)(=O)c3ccc(O)cc3)cc2)C(=O)C(C)(C)C)c1 (stereo not drawn) [Coupler Y-2],"CSF (curve shape factor, 100 X TBW/HBW)",[4],44.4
same,HBW (half band width),[4],90 nanometers
same,λ-max (maximum absorption peak of dye),[4],445
CCCCC(Oc1ccc(S(=O)(=O)c2ccc(O)cc2)cc1)C(=O)Nc1cccc(NC(=O)C(Oc2ccc(S(=O)(=O)c3ccc(O)cc3)cc2)C(=O)C(C)(C)C)c1 (stereo not drawn) [Coupler Y-3],"CSF (curve shape factor, 100 X TBW/HBW)",[4],44.4
same,HBW (half band width),[4],93 nanometers
same,λ-max (maximum absorption peak of dye),[4],441
CCCCCCCCCCC(Oc1ccc(S(=O)(=O)c2ccc(O)cc2)cc1)C(=O)Nc1ccc(Cl)c(NC(=O)C(Oc2ccc(S(=O)(=O)c3ccc(O)cc3)cc2)C(=O)C(C)(C)C)c1 (stereo not drawn) [Coupler Y-4],"CSF (curve shape factor, 100 X TBW/HBW)",[5],44.6
same,HBW (half band width),[5],90 nanometers
same,λ-max (maximum absorption peak of dye),[5],450
